Results as given in ChEMBL document CHEMBL4602603, “A review on HCV inhibitors: Significance of non-structural polyproteins” (Eur J Med Chem, 2019).

Biological target: T1, Hepatitis C virus serine protease, NS3/NS4A (Hepatitis C virus, UniProt A3EZI9+D2K2A8)
Assay: Inhibition of HCV NS3/4a protease using Ac-DE-Dap(QXL520)-EE-Abu-shi-[COO]AS-C(5-FAMsp)-NH2 as substrate after 15 mins
Format: protein-complex assay, Hepacivirus hominis
Conditions: not given

T1 sequence (D2K2A8 whole entry): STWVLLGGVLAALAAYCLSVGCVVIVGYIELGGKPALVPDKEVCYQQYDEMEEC
T1 sequence (A3EZI9 whole entry): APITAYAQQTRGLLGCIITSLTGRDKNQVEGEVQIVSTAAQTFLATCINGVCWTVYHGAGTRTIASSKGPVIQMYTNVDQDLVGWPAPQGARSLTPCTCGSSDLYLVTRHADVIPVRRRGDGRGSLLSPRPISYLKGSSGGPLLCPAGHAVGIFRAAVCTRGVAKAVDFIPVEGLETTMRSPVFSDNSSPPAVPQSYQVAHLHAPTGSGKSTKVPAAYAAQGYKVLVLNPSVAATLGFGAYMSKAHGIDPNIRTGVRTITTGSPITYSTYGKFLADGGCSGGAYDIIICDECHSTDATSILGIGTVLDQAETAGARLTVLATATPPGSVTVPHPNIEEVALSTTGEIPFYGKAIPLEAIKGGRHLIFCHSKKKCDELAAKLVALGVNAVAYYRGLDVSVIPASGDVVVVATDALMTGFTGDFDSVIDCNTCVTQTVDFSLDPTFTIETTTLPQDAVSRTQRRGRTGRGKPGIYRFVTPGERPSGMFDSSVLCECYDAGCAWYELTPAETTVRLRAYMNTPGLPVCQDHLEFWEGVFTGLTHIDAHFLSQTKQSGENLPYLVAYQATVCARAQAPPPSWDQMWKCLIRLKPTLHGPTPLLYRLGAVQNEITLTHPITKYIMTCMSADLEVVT

| Structure (SMILES) | Ki [nM] | IC50 [nM] |
| --- | --- | --- |
| CCCC[C@H](NC(=O)[C@@H]1[C@@H]2[C@H](CN1C(=O)[C@@H](NC(=O)NC1(CS(=O)(=O)C(C)(C)C)CCCCC1)C(C)(C)C)C2(C)C)C(=O)C(=O)NC1CC1 | 6 | – |
| COc1ccc2c(O[C@@H]3C[C@H]4C(=O)N[C@]5(C(=O)NS(=O)(=O)C6CC6)C[C@H]5/C=C/CCCCN(C)C(=O)[C@@H]4C3)cc(-c3nc(C(C)C)cs3)nc2c1C | – | 3 to 28.2 |
| CC(C)(C)OC(=O)N[C@H]1CCCCC/C=C\[C@@H]2C[C@@]2(C(=O)NS(=O)(=O)C2CC2)NC(=O)[C@@H]2C[C@@H](OC(=O)N3Cc4cccc(F)c4C3)CN2C1=O [DANOPREVIR] | – | 0.2 to 3.5 |

Test system: Hepatitis C virus
Assay: Antiviral activity against HCV
Format: functional, organism-based, Hepacivirus hominis
Conditions: not given

| Structure (SMILES) | EC50 [nM] | IC50 [nM] |
| --- | --- | --- |
| O=C(N[C@@H](Cc1c[nH]c2ccc(O)cc12)c1cscn1)c1ccc2c(c1)nc(-c1ccco1)n2C1CCCCC1 | 1700 | – |
| CCCC[C@H](NC(=O)[C@@H]1[C@@H]2[C@H](CN1C(=O)[C@@H](NC(=O)NC1(CS(=O)(=O)C(C)(C)C)CCCCC1)C(C)(C)C)C2(C)C)C(=O)C(=O)NC1CC1 | 40 | – |
| Nc1nc(C(F)(F)F)cc2c1[nH]c(=O)n2Cc1ccccc1 | 102000 | – |
| O=C1Cn2c(c(C3CCCCC3)c3ccc(C(=O)O)cc32)-c2ccccc2N1 | 240 | – |
| CCCCn1cc(/C=C2\Oc3cc(O)cc(O)c3C2=O)c2ccccc21 | 2200 | – |
| C=C[C@@H]1C[C@]1(NC(=O)[C@@H]1C[C@@H](Oc2ncc(OC)c3ccc(Cl)cc23)CN1C(=O)[C@@H](NC(=O)OC(C)(C)C)C(C)(C)C)C(=O)NS(=O)(=O)C1CC1 | 1 | – |
| COCCOc1nc(N)c2[nH]c(=O)n(Cc3ccccc3)c2n1 | 20000 | – |
| CN(C)C(=O)Cn1c(-c2ccccc2)c(C2CCCCC2)c2sc(C(=O)O)cc21 | 2900 | – |
| O=C(O)c1ccc2c(C3CCCCC3)c3n(c2c1)CCN(CCN1CCCCC1)c1ccccc1-3 | 400 | – |
| O=C(O)c1ccc2c(C3CCCCC3)c3n(c2c1)CCOc1cc(OCc2cc(N4CCCC4=O)ccc2N2CCOCC2)ccc1-3 | 7.6 | – |
| COc1ccc2c(O[C@@H]3C[C@H]4C(=O)N[C@]5(C(=O)O)C[C@H]5/C=C\CCCCC[C@H](NC(=O)OC5CCCC5)C(=O)N4C3)cc(-c3csc(NC(C)C)n3)nc2c1 | 9.5 | – |
| COC(=O)N[C@H](C(=O)N1CCC[C@H]1c1nc2ccc(-c3ccc(-c4ccc5nc([C@@H]6CCCN6C(=O)[C@@H](NC(=O)OC)C(C)C)[nH]c5c4)cc3)cc2[nH]1)C(C)C | 0.83 | – |
| Cc1ccc(NC(=O)c2c(NO)cc(-c3ccccc3)oc2=O)cc1 | 180 | – |
| CC(C)N1CC[C@@H](N2CCn3c(c(C4CCCCC4)c4sc(C(=O)O)cc43)-c3ccccc3C2)C1 | 150 | – |
| CC(=O)N(c1ccc(N2CCOCC2)c(COc2ccc(-c3nc4cc(C(=O)O)ccc4n3C3CCCCC3)c(F)c2)c1)C(C)C | 270 | – |
| CC[C@@H]1C[C@]1(NC(=O)[C@@H]1C[C@@H]2CN1C(=O)[C@H](C(C)(C)C)NC(=O)OCC(C)(C)CCCCc1cccc3c1CN(C3)C(=O)O2)C(=O)NS(=O)(=O)C1CC1 | – | 3 |
| C/C(=C/c1cc(-c2ccc(OCc3cc(CN4CCC(O)CC4=O)ccc3-c3ccc(C#N)cc3)cc2)n(C2CCCCC2)n1)C(=O)O (centres undefined) | 400 | – |
| CN(C)CCN(C)[C@@H]1Cn2c(c(C3CCCCC3)c3ccc(C(=O)O)cc32)-c2ccccc2O1 | 38 | – |

| Structure (SMILES) | EC50 [nM] | IC50 [nM] |
| --- | --- | --- |
| Nc1cc(Cn2c(C(=O)O)c(-c3ccc[nH]c3=O)c3ccc(Cl)cc32)ccn1 | 4800 | – |
| Cn1c(-c2ccco2)c(C2CCCCC2)c2ccc(C(=O)N[C@@H](Cc3c[nH]c4ccc(O)cc34)c3cscn3)cc21 | 50 | – |
| COc1ccc2c(c1)[C@H]1[C@@H](CCN1CCN(C)C)CCn1c-2c(C2CCCCC2)c2ccc(C(=O)O)cc21 | 29 | – |
| COc1ccc2c(c1)C=C(c1c(C(=O)C3C4CCCC3COC4)cnn1-c1ccncc1C)Cn1c-2c(C2CCCCC2)c2ccc(C(=O)NS(=O)(=O)C(C)C)cc21 (centres undefined) | 4 | – |
| Cn1c(-c2ccc(OCc3cc(N4CCCC4=O)ccc3N3CCOCC3)cc2)c(C2CCCCC2)c2sc(C(=O)O)cc21 | 52 | – |
| CS(=O)(=O)Nc1cccc(S(=O)(=O)NC(=O)c2c(-c3ccc[nH]c3=O)c3ccc(Cl)cc3n2Cc2ccnc(N)c2)c1 | 11 | – |
| CCc1ccc2c(-c3ccc[nH]c3=O)c(C(=O)NS(=O)(=O)C3CC3)n(Cc3cc([N+](=O)[O-])ccc3F)c2c1 | 1 | – |
| Cc1c(C(=O)O)sc2c(C3CCCCC3)c(-c3ccccc3)n(CC(=O)N(C)C3CCN(C(C)C)C3)c12 (centres undefined) | 130 | – |
| CCN(CC)C1CCN(C(=O)Cn2c(-c3ccco3)c(C3CCCCC3)c3ccc(C(=O)NS(=O)(=O)N(C)C)cc32)CC1 | 120 | – |
| CCN(CC)C1CCN(C(=O)Cn2c(-c3ccccc3)c(C3CCCCC3)c3ccc(C(=O)O)cc32)CC1 | 800 | – |
| Cc1ccc2c(-c3ccc[nH]c3=O)c(C(=O)NS(=O)(=O)C3CC3)n(Cc3cc(F)ccc3F)c2c1 | 90 | – |
| CN(C)CCN1CCn2c(c(C3CCCCC3)c3ccc(C(=O)O)cc32)-c2ccccc2C1 | 140 | – |
| CCc1nc2c(N)nc3ccccc3c2n1CCCCNS(C)(=O)=O [CPG-52852] | 100000 | – |
| CC(C)(C)OC(=O)N[C@H]1CCCCC/C=C\[C@@H]2C[C@@]2(C(=O)NS(=O)(=O)C2CC2)NC(=O)[C@@H]2C[C@@H](OC(=O)N3Cc4cccc(F)c4C3)CN2C1=O [DANOPREVIR] | 17.5 | – |
| C=C[C@@H]1C[C@]1(NC(=O)[C@@H]1C[C@@H]2CN1C(=O)[C@H](C(C)(C)C)NC(=O)O[C@@H]1C[C@H]1CCCCCc1nc3ccc(OC)cc3nc1O2)C(=O)NS(=O)(=O)C1CC1 [GRAZOPREVIR ANHYDROUS] | 9.5 | – |
| CC(C)Cn1cnc2c(N)nc3ccccc3c21 [IMIQUIMOD] | 1000 | – |
| COc1ccc2c(c1)C=C1Cn3c-2c(C2CCCCC2)c2ccc(cc23)C(=O)NS(=O)(=O)N(C)CCOCCN(C)C1=O [TMC-647055] | 82 | – |

Test system: Hepatitis C virus
Assay: Antiviral activity against HCV genotype 1a
Format: functional, organism-based, Hepacivirus hominis
Conditions: subtype 1a

| Structure (SMILES) | EC50 [nM] |
| --- | --- |
| COC(=O)N[C@H](C(=O)N1C[C@H](C)C[C@@H]1c1nc2sc(-c3ccc(-c4ccc(-c5c[nH]c([C@@H]6[C@H](C)CCN6C(=O)[C@H](NC(=O)OC)C(C)C)n5)cc4)cc3)cc2[nH]1)C(C)C | 0.017 |

Test system: Hepatitis C virus
Assay: Antiviral activity against HCV genotype 1b
Format: functional, organism-based, Hepacivirus hominis
Conditions: subtype 1b

| Structure (SMILES) | EC50 [nM] |
| --- | --- |
| COC(=O)N[C@H](C(=O)N1C[C@H](C)C[C@@H]1c1nc2sc(-c3ccc(-c4ccc(-c5c[nH]c([C@@H]6[C@H](C)CCN6C(=O)[C@H](NC(=O)OC)C(C)C)n5)cc4)cc3)cc2[nH]1)C(C)C | 0.008 |
| C=C[C@H]1C[C@]1(NC(=O)[C@@H]1C[C@@H]2CN1C(=O)[C@H](C(C)(C)C)NC(=O)O[C@@H]1C[C@H]1CCCCCc1c(nc3ccccc3c1OC1CC3CCC(C1)N3C)O2)C(=O)NS(=O)(=O)C1(C)CC1 (some centres undefined) | 0.62 |

Test system: Hepatitis C virus
Assay: Antiviral activity against HCV genotype 3a
Format: functional, organism-based, Hepacivirus hominis
Conditions: subtype 3a

| Structure (SMILES) | EC50 [nM] |
| --- | --- |
| C=C[C@H]1C[C@]1(NC(=O)[C@@H]1C[C@@H]2CN1C(=O)[C@H](C(C)(C)C)NC(=O)O[C@@H]1C[C@H]1CCCCCc1c(nc3ccccc3c1OC1CC3CCC(C1)N3C)O2)C(=O)NS(=O)(=O)C1(C)CC1 (some centres undefined) | 0.26 |

Biological target: T2, RNA-directed RNA polymerase (Hepacivirus hominis, UniProt O39930)
Assay: Inhibition of HCV NS5B polymerase
Conditions: not given

T2 sequence (O39930 whole entry): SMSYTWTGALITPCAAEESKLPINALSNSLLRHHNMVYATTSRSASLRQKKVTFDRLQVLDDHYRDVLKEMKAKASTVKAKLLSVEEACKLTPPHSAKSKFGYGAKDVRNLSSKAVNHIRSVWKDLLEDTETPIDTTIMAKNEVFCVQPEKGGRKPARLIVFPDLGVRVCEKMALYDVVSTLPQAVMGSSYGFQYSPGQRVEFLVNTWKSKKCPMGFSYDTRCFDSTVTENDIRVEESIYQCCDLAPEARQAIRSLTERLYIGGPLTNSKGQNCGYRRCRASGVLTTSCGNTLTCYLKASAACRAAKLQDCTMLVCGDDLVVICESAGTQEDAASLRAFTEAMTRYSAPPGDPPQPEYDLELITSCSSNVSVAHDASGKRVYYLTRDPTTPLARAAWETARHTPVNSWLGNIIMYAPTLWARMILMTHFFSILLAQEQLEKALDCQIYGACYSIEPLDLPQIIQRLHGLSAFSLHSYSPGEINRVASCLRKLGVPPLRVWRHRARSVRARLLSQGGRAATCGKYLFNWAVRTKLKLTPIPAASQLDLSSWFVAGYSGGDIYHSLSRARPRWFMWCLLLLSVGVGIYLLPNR

| Structure (SMILES) | IC50 [nM] |
| --- | --- |
| Cc1cc2c(-c3ccc[nH]c3=O)c(C(=O)NS(=O)(=O)C3CC3)n(Cc3cc(F)ccc3F)c2cc1F | 8 |
| CC1COc2cc3c(-c4ccc[nH]c4=O)c(C(=O)NS(C)(=O)=O)n(Cc4cc(F)ccc4F)c3cc21 (centres undefined) | 6 to 15 |
| Nc1cc(Cn2c(C(=O)O)c(-c3ccc[nH]c3=O)c3ccc(Cl)cc32)ccn1 | 53 |
| CCCC1(CC(=O)O)OCCC2c3c(CC)ccc(Cl)c3NC21 (centres undefined) | 3000 |
| CS(=O)(=O)Nc1cccc(S(=O)(=O)NC(=O)c2c(-c3ccc[nH]c3=O)c3ccc(Cl)cc3n2Cc2ccnc(N)c2)c1 | 39 |
| Cc1ccc2c(-c3ccc[nH]c3=O)c(C(=O)NS(=O)(=O)C3CC3)n(Cc3cc(F)ccc3F)c2c1 | 5 |

Biological target: T2, RNA-directed RNA polymerase
Assay: Binding affinity to HCV NS5B polymerase
Conditions: not given

| Structure (SMILES) | Kd [nM] | IC50 [nM] |
| --- | --- | --- |
| CN(C)CC1COc2ccc3nc4n(c3c2C1)CC(CN(C)C)CN4 (centres undefined) | 720 | – |
| O=C(N[C@@H](Cc1c[nH]c2ccccc12)C(=O)O)c1ccc2c(c1)nc(-c1ccoc1)n2C1CCCCC1 | – | 19 |
| O=C(NCCCc1ccccc1)c1nc2ccccc2c(=O)n1O | – | 8800 |
| CN(C)CCCn1c(N)nc2ccc3c(c21)CC(CN(C)C)O3 (centres undefined) | 1700 | – |
| CN(C)CCCn1c(N)nc2ccccc21 | > 100000 | – |
| O=C(O)C1C(c2ccccc2)c2ccccc2C(=O)N1O (centres undefined) | – | 15700 |
| N#Cc1c(Cl)cc(Cl)cc1COc1cccc(C(=O)/C=C(\O)C(=O)O)c1 | – | 45000 |

Biological target: T1, Hepatitis C virus serine protease, NS3/NS4A
Assay: Inhibition of HCV NS3/4a protease
Format: protein-complex assay, Hepacivirus hominis
Conditions: not given

| Structure (SMILES) | Ki [nM] | IC50 [nM] |
| --- | --- | --- |
| Cn1c(Cc2nc3cc(C(N)=O)ccc3[nH]2)nc2ccc(C(=O)NC(CP(=O)(O)O)C(=O)O)cc21 (centres undefined) | 1000 | – |
| COc1ccc2cc(O[C@@H]3C[C@@H](C(=O)NC4(C(=O)O)CC4)N(C(=O)[C@@H](NC(=O)[C@@H](NC(C)=O)C4CCCCC4)C(C)C)C3)cnc2c1 | – | 800 |
| CC(=O)N[C@@H](C(=O)O)C(=O)N[C@@H](CCC(=O)O)C(=O)N[C@H](C(=O)N[C@@H](CCC(=O)O)C(=O)N[C@@H](CC1CCCCC1)C(=O)N[C@@H](CC(F)F)C(=O)O)C(c1ccccc1)c1ccccc1 | 20 | – |
| CC(=O)N[C@@H](C(=O)O)C(=O)N[C@@H](CCC(=O)O)C(=O)N[C@H](C(=O)N[C@H](C(=O)N1C[C@H](OCc2ccccc2)C[C@H]1C(=O)NC(CS)C(=O)O)C(C)C)C1CCCCC1 (some centres undefined) | – | 33 |
| CC(C)C[C@H](NC[C@H](CC(=O)O)NC(=O)[C@H](CC1CCCCC1)NC(=O)[C@@H]1CCCC[C@H]1C(=O)O)C(N)=O | – | 15000 |
| CC(=O)N[C@@H](C(=O)O)C(=O)N[C@@H](CCC(=O)O)C(=O)N[C@H](C(=O)N[C@@H](CCC(=O)O)C(=O)N[C@@H](CC1CCCCC1)C(=O)N[C@@H](CS)C(=O)O)C(c1ccccc1)c1ccccc1 | 40 | – |
| CC(C)C[C@H](NC(=O)[C@H](CC(=O)O)NC(=O)OC(C)C)C(=O)N[C@@H](CC(F)(F)F)C(=O)NCCc1ccc(C(=O)O)cc1Cl | 600 | – |
| CC(=O)N[C@@H](C(=O)O)C(=O)N[C@@H](CCC(=O)O)C(=O)N[C@H](C(=O)N[C@H](C(=O)N1C[C@H](OCc2ccccc2)C[C@H]1C(=O)NC1(C(=O)O)CC1)C(C)C)C1CCCCC1 | – | 51 |

Biological target: T1, Hepatitis C virus serine protease, NS3/NS4A
Assay: Inhibition of HCV NS3/4a protease in presence Zn2+
Format: protein-complex assay, Hepacivirus hominis
Conditions: not given

| Structure (SMILES) | Ki [nM] |
| --- | --- |
| Cn1c(Cc2nc3cc(C(N)=O)ccc3[nH]2)nc2ccc(C(=O)NC(CP(=O)(O)O)C(=O)O)cc21 (centres undefined) | 27 |
